In patent publication US12246009B2, “Compositions and methods for treating neurodegenerative, myodegenerative, and lysosomal storage disorders” (GEORGETOWN UNIVERSITY, priority 2018, dated 2025):
“Also recorded” adds a separate entry of the source.

Experiments:
[1] = tested on: pTau (181); experiment: pTau (181) ELISA in pTau transfected B35 cells; type: cell-based, rat; conditions: 24 hour transfection
[2] = tested on: pTau (191); experiment: pTau in CamP301L mice; type: in vivo, mouse; conditions: 2.5 mg/kg or 5 mg/kg
[3] = molecular target: T1, Src (Mus musculus, UniProt P05480); experiment: Activated Src immunoblot in rTG4510 mice; type: in vivo; conditions: rTG4510 mice, 1.25, 2.5 or 5 mg/kg i.p., 7 days
T1 construct: Brains from treated mice compared with DMSO treated mice were homogenized in STEN lysis buffer; from tissue; host or cells: brain of rTg4510 mice

[4] = molecular target: T2, DDR1 (Mus musculus, UniProt Q03146); experiment: Phosphorylated DDR1 immunoblot in transgenic APP mice; type: in vivo; conditions: 21 days
T2 construct: Brains were collected and homogenized in 1.0 ml 1× STEN buffer; from tissue; host or cells: brain of rTg4510 or TgAPP mice
T2 sequence (Q03146 20-911): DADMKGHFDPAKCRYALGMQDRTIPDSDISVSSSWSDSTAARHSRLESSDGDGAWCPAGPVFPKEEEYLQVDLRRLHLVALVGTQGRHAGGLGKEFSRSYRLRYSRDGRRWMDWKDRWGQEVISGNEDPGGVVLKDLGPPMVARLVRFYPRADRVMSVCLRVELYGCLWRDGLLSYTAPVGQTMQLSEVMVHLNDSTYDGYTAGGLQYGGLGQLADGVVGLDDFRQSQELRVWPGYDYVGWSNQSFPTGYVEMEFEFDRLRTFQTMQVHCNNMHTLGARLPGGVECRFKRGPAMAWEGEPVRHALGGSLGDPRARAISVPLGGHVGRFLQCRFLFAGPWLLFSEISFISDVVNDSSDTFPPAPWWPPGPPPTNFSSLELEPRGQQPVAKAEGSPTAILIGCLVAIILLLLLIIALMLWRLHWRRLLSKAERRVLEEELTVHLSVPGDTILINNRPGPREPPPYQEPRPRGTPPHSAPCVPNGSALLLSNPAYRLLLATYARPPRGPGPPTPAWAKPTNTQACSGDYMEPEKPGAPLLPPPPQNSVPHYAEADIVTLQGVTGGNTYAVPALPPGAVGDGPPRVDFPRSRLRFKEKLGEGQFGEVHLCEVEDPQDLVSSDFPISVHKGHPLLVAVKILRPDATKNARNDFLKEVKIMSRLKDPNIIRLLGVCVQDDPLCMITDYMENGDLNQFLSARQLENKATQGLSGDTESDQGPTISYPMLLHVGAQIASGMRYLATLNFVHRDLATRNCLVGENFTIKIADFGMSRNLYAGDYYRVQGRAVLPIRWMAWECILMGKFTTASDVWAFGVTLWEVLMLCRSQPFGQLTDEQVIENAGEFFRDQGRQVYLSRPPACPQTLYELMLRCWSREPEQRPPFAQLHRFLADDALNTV

[5] = molecular target: T3, Ab1 (Mus musculus, UniProt P00520); experiment: Activated (phosphorylated) Ab1 (245) immunoblot in transgenic APP mice; type: in vivo; conditions: i.p., 21 days
T3 construct: Brains from treated mice compared with DMSO treated mice were homogenized in STEN lysis buffer; from tissue; host or cells: brain of rTg4510 or TgAPP mice

[6] = tested on: Tau (HT7); experiment: Tau (HT7) in Tau transgenic mice; type: in vivo, mouse; conditions: seven days of treatment, 1.25 mg/kg and 2.5 mg/kg
[7] = tested on: pTau (181); experiment: pTau (181) ELISA/Xmap in Tau expressing transgenic (rTG4510) mice; type: in vivo, mouse
[8] = tested on: B35 cells; experiment: Lactate dehydrogenase (LDH) assay, cytotoxicity / cell viability; type: cell-based; conditions: for LDH measured in the media (cell death / toxicity): 24 hour transfection with pTau or α-synuclein
Description: Rat neuroblastoma B35 cells were grown in Dulbecco's Modified Eagle's Medium (DMEM) with 10% Fetal Bovine Serum (FBS) and 1% penicillin/streptomycin and incubated at 37° C. with 5% CO2. For the experiments, cells were transferred to 12-well plates (Cat. #150628, ThermoFisher, Waltham, MA) and grown to at least 70% confluence. Transient transfection was performed with 3 μg P301 L tau (Cat. #30145, Addgene) cDNA or 3 μg human α-synuclein cDNA using Fugene HD transfection reagent (Cat. #E2311, Promega, Madison WI) for 24 hours. […] Cell culture media was collected and cells were harvested using sodium-tris, EDTA, NP-40 (STEN) buffer and centrifuged at 10,000×g for 20 minutes at 4′C and supernatant was collected. Cell viability was determined via lactate dehydrogenase assay (Cat. #88954, Thermofisher) and MTT assay (Cat. #V13154, Thermofisher). Protein was extracted by removing culture medium and adding 0.2 ml 1× STEN buffer (50 mM. Tris (pH 7.6), 150 mM NaCl, 2 mM EDTA, 0.2% NP-40, 0.2% BSA, 20 mM. PMSF and protease cocktail inhibitor) to cell layer and incubated on ice for 10 minutes. The bottom of the well was scraped and allowed to incubate on ice for an additional 10 minutes. Cell lysates were collected, stored at −80° C., and used for additional analyses.
Cellular cytotoxicity was quantitatively measured by assessment of LDH; a cytosolic enzyme that is released from damaged cells into the cellular media, after exposure to the drug 5 hours after initial dosage. The cell culture media was collected, and an aliquot was coupled with a lactate and NAD+. LDH catalyzes the reaction that converts lactate into pyruvate to produce NADH. NADH, in turn, reduces a tetrazolium salt (INT) into a red formazan product. The amount of LDH in the media is proportional to the amount of formazan, which was measured at 490 nm. The absorbance at 680 nm, to measure the background signal from the instrument, was subtracted from the absorbance at 490 nm to calculate the LDH activity.

[9] = tested on: phosphorylated Tau (AT8); experiment: Phosphorylated Tau (AT8) immunoblot in rTG4510 mice; type: in vivo, mouse; conditions: all three doses (1.25, 2.5, 5 mg/kg) i.p., 7 days

T3 sequence (P00520 whole entry): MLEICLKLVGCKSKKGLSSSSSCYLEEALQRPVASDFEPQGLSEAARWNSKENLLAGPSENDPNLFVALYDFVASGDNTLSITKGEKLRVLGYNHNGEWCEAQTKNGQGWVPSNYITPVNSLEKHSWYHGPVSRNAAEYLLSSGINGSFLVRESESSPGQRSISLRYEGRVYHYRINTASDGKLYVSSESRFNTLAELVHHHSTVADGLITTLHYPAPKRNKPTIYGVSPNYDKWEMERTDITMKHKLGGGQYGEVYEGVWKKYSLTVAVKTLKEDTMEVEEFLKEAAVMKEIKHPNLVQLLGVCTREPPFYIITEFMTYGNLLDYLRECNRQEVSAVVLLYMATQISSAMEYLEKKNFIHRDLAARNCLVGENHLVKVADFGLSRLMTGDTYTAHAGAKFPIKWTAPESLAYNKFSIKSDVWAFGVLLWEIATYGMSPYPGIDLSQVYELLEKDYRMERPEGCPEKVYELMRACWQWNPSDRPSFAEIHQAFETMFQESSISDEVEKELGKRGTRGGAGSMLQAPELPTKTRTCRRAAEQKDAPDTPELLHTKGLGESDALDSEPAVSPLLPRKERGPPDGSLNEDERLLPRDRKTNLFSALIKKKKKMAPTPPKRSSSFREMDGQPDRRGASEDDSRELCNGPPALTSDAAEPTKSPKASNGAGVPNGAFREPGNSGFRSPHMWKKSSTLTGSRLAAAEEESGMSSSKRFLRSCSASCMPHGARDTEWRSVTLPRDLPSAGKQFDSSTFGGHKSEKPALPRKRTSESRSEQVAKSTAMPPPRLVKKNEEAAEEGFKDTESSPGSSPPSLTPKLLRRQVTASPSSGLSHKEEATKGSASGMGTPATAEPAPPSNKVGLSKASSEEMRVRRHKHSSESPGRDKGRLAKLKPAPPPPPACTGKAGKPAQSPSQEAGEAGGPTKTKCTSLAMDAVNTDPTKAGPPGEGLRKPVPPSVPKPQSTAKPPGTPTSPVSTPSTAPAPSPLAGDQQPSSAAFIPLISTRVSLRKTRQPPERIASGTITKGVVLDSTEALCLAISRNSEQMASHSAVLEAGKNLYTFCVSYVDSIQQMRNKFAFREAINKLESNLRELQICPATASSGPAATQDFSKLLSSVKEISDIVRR
T1 sequence (P05480 whole entry): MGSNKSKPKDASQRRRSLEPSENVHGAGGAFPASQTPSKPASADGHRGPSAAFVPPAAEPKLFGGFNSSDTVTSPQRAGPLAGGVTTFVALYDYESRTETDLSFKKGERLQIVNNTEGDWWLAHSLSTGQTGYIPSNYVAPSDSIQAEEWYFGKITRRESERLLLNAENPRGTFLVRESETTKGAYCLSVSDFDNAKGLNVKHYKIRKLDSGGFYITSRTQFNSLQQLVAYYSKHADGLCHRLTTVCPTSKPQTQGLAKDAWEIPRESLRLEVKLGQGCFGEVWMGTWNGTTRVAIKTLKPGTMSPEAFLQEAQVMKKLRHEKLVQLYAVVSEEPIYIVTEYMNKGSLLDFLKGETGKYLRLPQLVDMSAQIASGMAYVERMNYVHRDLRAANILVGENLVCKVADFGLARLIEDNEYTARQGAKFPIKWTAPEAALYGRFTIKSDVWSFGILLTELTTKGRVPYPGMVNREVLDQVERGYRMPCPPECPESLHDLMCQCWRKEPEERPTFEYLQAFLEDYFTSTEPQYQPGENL

Cc1cccc(-c2cc3nccc(Nc4ccccc4)c3s2)c1 [BK40143, N-Phenyl-2-(m-tolyl)thieno[3,2-b]pyridin-7-amine]
pTau (181) levels [1]: reduces pTau (181) levels
pTau (191) level [2]: reduced
activated Src, immunoblot [3]: did not engage
activated Src, immunoblot ([3]; listed as BK-40143): does not engage
deactivation of DDR1 (phosphorylated DDR1 immunoblot) ([4]; 1.25 mg/kg i.p.): 40%
deactivation of DDR1 (phosphorylated DDR1 immunoblot) ([4]; 2.5 mg/kg i.p.): 31%
activated (phosphorylated) Ab1 (245) [5]: does not engage Ab1; also recorded: did not engage Ab1
Tau (HT7) level [6]: significantly reduced
pTau (181) level, ELISA ([7]; Tau expressing transgenic mice, seven days of treatment): reduces pTau (181)
phosphorylated Tau (AT181), ELISA ([7]; rTG4510 mice, 2.5 mg/kg i.p., 7 consecutive days, 2.5 mg/kg): significantly reduced phosphorylated Tau
lactate dehydrogenase (LDH), neuroprotective effect ([8]; 1 μM, 16 hours of treatment, compared to control): decrease
LDH measured in the media (cell death / toxicity) ([8]; five hours of treatment): does not result in toxicity or cell death
LDH measured in the media (cell death / toxicity) ([8]; five hours of treatment, listed as BK41043): without any change to LDH levels
cell viability via LDH ([8]; five hours of treatment, with decreasing concentrations): stepwise increase in cell viability
reduction of phosphorylated Tau (AT8), immunoblot [9]: 41-49%
